Like-named read-outs stand apart in the source and are kept apart here.
Experiments:
[1] = test system: human red blood cells (hRBCs); format: cell-based
Procedure: Heparinized fresh blood (∼3 ml) was collected from an anonymous donor. A 200 µl aliquot was removed and washed 4× with 800 µl of cold PBS at RT for 3 min at ∼500×g. After each centrifugation, 780 µl of supernatant was removed. After the last wash, the supernatant was completely removed and the packed red blood cells were diluted 1∶20 in PBS to prepare a 5% v/v stock suspension of hRBCs.
All experiments were carried out in triplicate using 96-well microplate (Costar 3596) and the OD at 700 nm was monitored every 30 s. employing the SpectraMAX 250 microplate reader (Molecular Devices, Sunnyvale, CA). Controls included PBS, untreated human RBCs, and human RBCs +2.5% Triton (100% lysis). The hemolytic effect was calculated as follows: [drawing 1]

[2] = test system: HIV-1 (BaL); format: cell-based; settings: TZM-bl assay; HIV-1 BaL (R5); 24 hr; luciferase activity
Procedure: The ability of the analogs to inhibit HIV infection was determined with an assay that determines viral infectivity with an LTR-mediated luciferase reporter construct [37]. In brief, TZM-bl reporter cells are HeLa-derived JC53-BL cells that express high levels of CD4, CXCR4, and CCR5. They also contain reporter cassettes for luciferase and β-galactosidase, both driven by the HIV-1 long terminal repeat [38]). 24 hr after these reporter cells were exposed to R5 lab-adapted strains of HIV-1 (BaL) in the presence of peptides, protection was measured as % reduction in luciferase activity (relative light units) compared to cells infected with virus and peptide vehicle alone.

[3] = SDS-PAGE in non-reductive conditions; format: physicochemical; settings: inconclusive
[4] = molecular target: gp120LAV (Human immunodeficiency virus type 1 group M subtype B, UniProt P03377); settings: SPR, BIAcore CM5 chip, HBS-EP pH = 7.4; KD±SEM, average from at least 5 independent experiments
Procedure: (§1) Surface plasmon resonance (SPR) studies were performed on a BIAcore 3000 system (BiaCore AB, Piscataway, NJ), using BIAcore CM5 sensor chips and HBS-EP running buffer (pH = 7.4) containing 10 mM HEPES, 150 mM NaCl, 3 mM EDTA, and 0.005% polysorbate 20. Proteins/peptides were immobilized on a CM5 sensor chip using the amine coupling method. The chip was activated by mixing 400 mM N-ethyl-N-(3-dimethylaminopropyl)-carbodiimide hydrochloride and 100 mM N-hydroxysuccinimide. Residual reactive groups on the chip surface were blocked using 1.0 M ethanolamine/HCl (pH = 8.5). The flow cell-1 chamber, which served as a control, lacked immobilized protein but was treated with N-ethyl-N-(3-dimethylaminopropyl)-carbodiimide hydrochloride, N-hydroxysuccinimide, and ethanolamine/HCl. Binding signals were corrected for nonspecific binding by subtracting the flow cell-1 signal. To regenerate chip surfaces, bound ligands were removed with 10 mM HCl. Data were analyzed with BIAevaluation 4.1 software (Biacore, Piscataway, NJ).

[5] = molecular target: gp41 (Human immunodeficiency virus type 1 group M subtype B, UniProt P03375); settings: SPR, BIAcore CM5 chip, HBS-EP pH = 7.4; KD±SEM, average from at least 5 independent experiments
Procedure: as §1

[6] = FTIR spectroscopy secondary structure; format: physicochemical
Procedure: Infrared spectra were recorded at 25°C using a Bruker Vector 22™ FTIR spectrometer with a deuterated triglycine sulfate (DTGS) detector, and averaged over 256 scans at a gain of 4 with a resolution of 2 cm^−1. Peptide samples were initially freeze-dried several times from 10 mM HCl in D2O to remove any interfering counter ions and residual H2O. Solution spectra of peptides were made in deuterated 10 mM phosphate buffer, pD = 7.4 (pD = pH+0.4) and in structure promoting mixed solvent-buffer solutions (trifluoroethanol (TFE) or hexafluoroiso propanol (HFIP). Spectra were acquired using a temperature controlled, demountable liquid cell with calcium fluoride windows fitted with a 50 µm thick spacer (Harrick Scientific, Pleasantville, NY). The relative proportions of α-helix, β-turn, β-sheet, and disordered conformations of solution and multilayer IR spectra were determined by Fourier self-deconvolution for band narrowing and area calculations of component peaks of the FTIR spectra using curve-fitting software supplied by Galactic Software (GRAMS/AI, version 8.0; Thermo Electron Corp., Waltham, MA). The frequency limits for the different structures were: α-helix (1662–1645 cm^−1), β-sheet (1637–1613 and 1710–1682 cm^−1), turns (1682–1662 cm^−1), and disordered or random (1650–1637 cm^−1).

[7] = molecular target: GRFN-1 (self-association); assay: SPR self-association of GRFN-1; format: binding; settings: BIAcore CM5 chip, HBS-EP pH = 7.4, KD±SEM, average from at least 5 independent experiments
[8] = test system: CCR5 (HIV-1BAL); assay: p24^gag antigen release assay using PBMCs, CCR5 strain; format: cell-based; settings: PBMC based p24^gag antigen release assay
[9] = CD analysis of secondary structure; format: physicochemical; settings: for disordered / turns / α-helix / β-sheet: Selcon
Procedure: Peptide was scanned at 20 nm per minute in a 0.01 cm path-length cell at 25°C with a sample interval of 0.2 nm. The peptide concentration was determined by UV absorbance at 280 nm. After baseline correction, spectra were expressed as the Mean Residue Ellipticity [θ]MRE. Quantitative estimates of secondary structural contributions were made with Selcon using the spectral basis set for proteins in the Olis Global Works™ software package (Olis Inc., Bogart, GA).

[10] = NMR studies of oligomerization (data not shown); format: physicochemical; settings: water, DMSO and their mixtures; limited NMR studies (data not shown)
[11] = 0.5 mM in 10 mM phosphate buffer pH = 7.5, 25°C
[12] = 0.5 mM in HFIP:10 mM phosphate buffer pH = 7.5 (4∶6, v∶v), 25°C
[13] = 0.5 mM in TFE:10 mM phosphate buffer pH = 7.5 (4∶6, v∶v), 25°C
[14] = 0.25 mM in 10 mM phosphate buffer pH = 6.5, 25°C
[15] = 0.5 mM in 10 mM phosphate buffer pH = 6.5, 25°C
[16] = 0.5 mM in HFIP:10 mM phosphate buffer pH = 6.5 (4∶6, v∶v), 25°C
[17] = 0.5 mM in TFE:10 mM phosphate buffer pH = 6.5 (4∶6, v∶v), 25°C

Sequence of gp41 (P03375 512-856): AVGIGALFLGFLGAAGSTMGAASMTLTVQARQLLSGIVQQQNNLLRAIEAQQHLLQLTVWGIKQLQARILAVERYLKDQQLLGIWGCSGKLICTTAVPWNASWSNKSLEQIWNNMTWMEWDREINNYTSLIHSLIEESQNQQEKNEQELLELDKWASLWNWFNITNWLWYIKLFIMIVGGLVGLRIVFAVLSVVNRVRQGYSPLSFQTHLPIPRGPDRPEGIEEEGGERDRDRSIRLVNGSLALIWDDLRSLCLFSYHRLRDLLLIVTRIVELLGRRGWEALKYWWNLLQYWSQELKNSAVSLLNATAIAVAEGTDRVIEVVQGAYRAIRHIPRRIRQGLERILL

For “Cha-SC-Chg-R-Chg-RSGSY-Cha-DN-Chg-R-Chg-(D)Cys-CONH2 (disulfide) [GRFN-1]”, which Hemolysis ([1]; 2.5 µM) is on record?
The Hemolysis was 1.2±0.7%.

What about the Hemolysis ([1]; 5 µM) of the same substance?
The Hemolysis was 2.8±2.3%.

What about the Hemolysis ([1]; 10 µM) of the same substance?
The Hemolysis was 7.3±1.3%.

What about the EC50 [2] of the same substance?
The EC50 was 191 ± 11 nM.

And the “apparent size of dimers” value [3]?
Its value is ~4.5 kDa.

And the Kd [4]?
Its Kd is 2240 ± 810 nM.

And the Kd [5]?
Its Kd is 3000 ± 1310 nM.

And the disordered [6, 11]?
The disordered was 27.6%.

And the turns [6, 11]?
Its turns is 22.4%.

And the α-helix [6, 11]?
Its α-helix is 12.4%.

And the β-sheet [6, 11]?
The β-sheet was 37.6%.

What about the disordered [6, 12] of the same substance?
The disordered was 25.8%.

And the turns [6, 12]?
Its turns is 17.2%.

What about the α-helix [6, 12] of the same substance?
Its α-helix is 48.6%.

And the β-sheet [6, 12]?
The β-sheet was 8.4%.

And the disordered [6, 13]?
The disordered was 24.8%.

What about the turns [6, 13] of the same substance?
The turns was 20.3%.

And the α-helix [6, 13]?
The α-helix was 23.2%.

What about the β-sheet [6, 13] of the same substance?
Its β-sheet is 31.7%.

What about the “secondary structure (in words)” value ([6]; TFE:buffer and HFIP:buffer) of the same substance?
Its value is “shift from β-sheet to more helical conformations”.

And the “secondary structure (in words)” value ([6]; aqueous buffer)?
The value was “dominant β-sheet structure”.

What about the “KD (self-association)” value [7] of the same substance?
Its value is 500 ± 130 nM.

What about the “antiviral activity (in words)” value [8] of the same substance?
Its value is “maintained their antiviral activity”.

And the disordered [9, 14]?
Its disordered is 30.0%.

And the turns [9, 14]?
Its turns is 21.0%.

What about the α-helix [9, 14] of the same substance?
The α-helix was 25.0%.

What about the β-sheet [9, 14] of the same substance?
Its β-sheet is 24.0%.

What about the disordered [9, 15] of the same substance?
The disordered was 31.0%.

What about the turns [9, 15] of the same substance?
Its turns is 21.0%.

And the α-helix [9, 15]?
The α-helix was 13.0%.

What about the β-sheet [9, 15] of the same substance?
The β-sheet was 35.0%.

What about the disordered [9, 16] of the same substance?
The disordered was 24.0%.

What about the turns [9, 16] of the same substance?
The turns was 16.0%.

What about the α-helix [9, 16] of the same substance?
The α-helix was 52.0%.

What about the β-sheet [9, 16] of the same substance?
The β-sheet was 8.0%.

What about the disordered [9, 17] of the same substance?
The disordered was 30.0%.

And the turns [9, 17]?
Its turns is 23.0%.

And the α-helix [9, 17]?
The α-helix was 19.0%.

And the β-sheet [9, 17]?
Its β-sheet is 28.0%.

What about the “secondary structure (in words)” value ([9]; 10 mM phosphate buffer, pH = 6.5, 250 µM) of the same substance?
The value was “almost equal proportions of α-helix, β-sheet, turn and disordered conformations”.

And the “secondary structure (in words)” value ([9]; 10 mM phosphate buffer, pH = 6.5, 500 µM vs 250 µM)?
Its value is “β-sheet structure increases at the expense of α-helix”.

And the “secondary structure (in words)” value ([9]; HFIP:buffer)?
The value was “dominant helical conformation”.

And the “secondary structure (in words)” value ([9]; TFE:buffer)?
Its value is “mix of α-helix, β-sheet, turns”.

What about the “concentration dependence of conformation” value ([9]; TFE:buffer and HFIP:buffer, 50 to 500 µM (data not shown)) of the same substance?
Its value is “not concentration dependent”.

What about the “oligomerization (in words)” value [10] of the same substance?
The value was “Oligomerization of GRFN-1 in various solvents (water, DMSO and their mixtures) was suggested”.

— article PMC3002932 (PLoS ONE, 2010)
